Experimental data reported in publication PMC12118597 (Science Advances, 2025).
pIC50, pKi: −log10 of the molar value. Where “and” joins values, the source holds several entries; their conditions need not be identical. Equal values may be shown once. Read-outs that look alike come from different tables or passages of the source.

What was measured:
[1] = biological target: T1, SARS-CoV-2 NSP3 macrodomain (Mac1) (Severe acute respiratory syndrome coronavirus 2, UniProt P0DTD1); test: biochemical; assay type: binding; settings: for Average % competition: Single dose, concentration 200 μM
[2] = biological target: T1, SARS-CoV-2 NSP3 macrodomain (Mac1); assay type: binding; settings: for Number of isomers bound: ligand modeling, Mac1 crystal soak; for 1-BDC: PanDDA background density correction; for X-ray crystal structure: TRUE = crystal structure with ligand obtained; for Hit (PanDDA run, overall): crystal soak, 10 mM soak concentration; for Refined ligand occupancy (%): crystallographic refinement; for 2*(1-BDC) (%): occupancy estimate from PanDDA; for Binding site: site of ligand in X-ray crystal structure
[3] = SARS CoV-2 macrodomain HTRF assay, single dose concentration 200 μM, read-out: Average % competition
[4] = compound at 200 μM, mean of three to four technical replicates, read-out: % competition at 200 μM (preliminary HTRF screen)
[5] = crystal soak 10 mM, TFA/DMSO background map
[6] = stereoisomer(s) modeled as bound, residues 201/202/203
[7] = SARS CoV-2 macrodomain HTRF assay
[8] = SARS CoV-2 macrodomain HTRF assay, dose-response, read-out: IC50
[9] = crystal soak 10 mM, P43 crystal form
[10] = crystal soak 10 mM, DMSO background map
[11] = read-out: IC50 (confirmatory HTRF dose-response screen)
[12] = HTRF binding curve, SARS-CoV-2 Mac1
[13] = SARS CoV-2 macrodomain HTRF assay, dose-response
[14] = crystal soak 10 mM, DMSO background map, event 1
[15] = stereoisomer(s)/conformations of the soaked ligand modeled in the Mac1 crystal structure

SMILES | inhibition at 200 µM [1, 3] | inhibition at 200 µM [1, 4] | Number of isomers bound [2] | pKi [1, 7] | Ligand efficiency (binding enery per heavy atom) [1, 7] | pIC50 [1, 8] | Isomers modeled [2, 15] | further results
O=C(O)C(F)(F)F.OC[C@@H]1CC2(CC2)CN1c1ncnc2[nH]ccc12 [AVI-3710] | 57% | 57% | 1 | – | – | – | – | PanDDA run, TFA/DMSO background map: 1-BDC [2, 5]: 0.23; PanDDA run, TFA/DMSO background map: Hit [2, 5]: TRUE; Isomers modeled [2, 6]: S,S
OCC(Cc1cccs1)Nc1ncnc2[nH]ccc12 (stereo not drawn) [AVI-3711] | – | 63% | 1 | – | – | – | – | Average % competition [1]: 63%; PanDDA run, TFA/DMSO background map: 1-BDC [2, 5]: 0.16; PanDDA run, TFA/DMSO background map: Hit [2, 5]: TRUE
OCC1C2CCC(C2)N1c1ncnc2[nH]ccc12 (stereo not drawn) [AVI-3713] | – | – | 1 | 4.60 | 0.35 | 4.57 | – | Isomers modeled [2, 6]: SSR
OCC(Nc1ncnc2[nH]ccc12)c1ccccc1 (stereo not drawn) [AVI-3715] | – | 54% | 1 | – | – | – | – | Average % competition [1]: 54%; PanDDA run, TFA/DMSO background map: 1-BDC [2, 5]: 0.09; PanDDA run, TFA/DMSO background map: Hit [2, 5]: TRUE
OCC1COCCN1c1ncnc2[nH]ccc12 (stereo not drawn) [AVI-3717] | 62% | 62% | 2 | – | – | – | – | Isomers modeled [2, 6]: R,S
CC(C)(C)C1CCC(CO)N(c2ncnc3[nH]ccc23)C1 (stereo not drawn) [AVI-3719] | 36% | 36% | 1 | – | – | – | – | –
OC[C@@H]1C[C@@H]2CCC[C@@H]2N1c1ncnc2[nH]ccc12 [AVI-3720] | – | – | 1 | 4.59 | 0.33 | 4.55 | – | Isomers modeled [2, 6]: SSS
CN1CCN(c2ncnc3[nH]ccc23)C(CO)C1 (stereo not drawn) [AVI-3721] | 11% | 11% | 1 | – | – | – | – | Isomers modeled [2, 6]: R,R
CC(C)(C)[C@@H]1CCN(c2ncnc3[nH]ccc23)[C@H](CO)C1 [AVI-3722] | 22% | 22% | 1 | – | – | – | – | –
OC[C@H]1CN2CCC[C@H]2CN1c1ncnc2[nH]ccc12 [AVI-3724] | < 10% | < 10% | – | – | – | – | – | PanDDA run, overall: Hit [2, 9]: TRUE; PanDDA run, overall: Modeling comment [2, 9]: Weak density, not modeled; PanDDA run, DMSO background map: 1-BDC [2, 10]: 0.05; PanDDA run, DMSO background map: Hit [2, 10]: TRUE
CC1(C)CCC(CO)N(c2ncnc3[nH]ccc23)C1 (stereo not drawn) [AVI-3726] | 76% | 76% | 2 | – | – | – | – | Isomers modeled [2, 6]: R,R,S
OCC1CC2(CCCCC2)CN1c1ncnc2[nH]ccc12 (stereo not drawn) [AVI-3727] | 67% | 67% | 1 | – | – | – | – | PanDDA run, TFA/DMSO background map: 1-BDC [2, 5]: 0.25; PanDDA run, TFA/DMSO background map: Hit [2, 5]: TRUE
OCC1CC2(CCC2)CN1c1ncnc2[nH]ccc12 (stereo not drawn) [AVI-3728] | 79% | 79% | 1 | – | – | – | – | PanDDA run, TFA/DMSO background map: 1-BDC [2, 5]: 0.26; PanDDA run, TFA/DMSO background map: Hit [2, 5]: TRUE; Isomers modeled [2, 6]: S,S
C[C@@H](O)[C@H](CO)Nc1ncnc2[nH]ccc12.O=C(O)C(F)(F)F [AVI-3730] | – | 63% | 1 | – | – | – | – | Average % competition [1]: 63%; PanDDA run, TFA/DMSO background map: 1-BDC [2, 5]: 0.12; PanDDA run, TFA/DMSO background map: Hit [2, 5]: TRUE
O=C(O)C(F)(F)F.OC1([C@H]2CCCN2c2ncnc3[nH]ccc23)Cc2ccccc2C1 [AVI-3731] | – | – | 1 | 5.47 | 0.31 | – | – | pIC50 [1, 11]: 5.43; PanDDA run, TFA/DMSO background map: 1-BDC [2, 5]: 0.14; PanDDA run, TFA/DMSO background map: Hit [2, 5]: TRUE
Cc1nn(C)cc1C1CC[C@H](CO)N1c1ncnc2[nH]ccc12 (stereo partly drawn) [AVI-3733] | 44% | 44% | 1 | – | – | – | – | –
OCCC(CO)Nc1ncnc2[nH]ccc12 (stereo not drawn) [AVI-3734] | – | – | 1 | 4.32 | 0.37 | – | – | pIC50 [1, 11]: 4.28
Cc1c[nH]c2ncnc(NCC(C)(C)O)c12 [AVI-3758, 2-methyl-1-((5-methyl-7H-pyrrolo[2,3-d]pyrimidin-4-yl)amino)propan-2-ol] | – | – | – | 4.59 | 0.40 | – | – | Hill slope [1, 12]: 1.0; Hill slope [1, 13]: 1.0; pIC50 [1, 11]: 4.55; 1-BDC [2]: 0.14; X-ray crystal structure [2]: TRUE; Hit (PanDDA run, DMSO background map) [2, 10]: TRUE; 1-BDC (PanDDA run, DMSO background map) [2, 14]: 0.19 and 0.14; Hit (PanDDA run, overall) ([2]; P43 crystal form): TRUE; Refined ligand occupancy (%) [2]: 50%; 2*(1-BDC) (%) [2]: 28%; Binding site [2]: Adenosine
Cc1c[nH]c2ncnc(NCC3(O)CCCC3)c12 [AVI-3760, 1-(((5-methyl-7H-pyrrolo[2,3-d]pyrimidin-4-yl)amino)methyl)cyclopentan-1-ol] | – | – | – | 4.74 | 0.36 | 4.72 | – | Hill slope [1, 12]: 1.1; Hill slope [1, 13]: 1.1; 1-BDC [2]: 0.16; X-ray crystal structure [2]: TRUE; Hit (PanDDA run, DMSO background map) [2, 10]: TRUE; 1-BDC (PanDDA run, DMSO background map) [2, 14]: 0.19 and 0.16; Hit (PanDDA run, overall) ([2]; P43 crystal form): TRUE; Refined ligand occupancy (%) [2]: 50%; 2*(1-BDC) (%) [2]: 32%; Binding site [2]: Adenosine
C[C@@H]1CCN(c2ncnc3[nH]ccc23)[C@H](CO)C1 [AVI-4064] | – | – | – | 4.03 | 0.31 | 4.00 | RS,SR | –
O=C(O)C(F)(F)F.OC[C@H](Cc1ccc(O)cc1)Nc1ncnc2[nH]ccc12 [AVI-4066] | – | – | – | 3.17 | 0.21 | 3.14 | – | Hit (PanDDA run, TFA/DMSO background map) [2, 5]: TRUE; 1-BDC (PanDDA run, TFA/DMSO background map) ([2]; crystal soak 10 mM, TFA/DMSO background map, event 1): 0.19 and 0.29 and 0.3
CC(C)(O)C1N(c2ncnc3[nH]ccc23)CCC1(C)C (stereo not drawn) [AVI-4126] | – | – | – | 4.03 | 0.28 | 4.00 | R,S | –
CC(C)(O)C1C2CCCCC2CN1c1ncnc2[nH]ccc12 (stereo not drawn) [AVI-4127] | – | – | – | 3.92 | 0.25 | 3.89 | SSR,SRS | –
CC(C)(O)C1C2CCC2CN1c1ncnc2[nH]ccc12 (stereo not drawn) [AVI-4128] | – | – | – | 4.66 | 0.32 | – | SRR | pIC50 [1, 11]: 4.62
CC1CCC(O)(CNc2ncnc3[nH]ccc23)CC1 (stereo not drawn) [AVI-4312] | – | – | – | 4.70 | 0.34 | 4.68 | rr | –
Cc1c[nH]c2ncnc(NCC3(O)CCC(C)CC3)c12 (stereo not drawn) [AVI-4331] | – | – | – | – | 0.26 | 3.68 | rr | –
CC(O)C(C)Nc1ncnc2[nH]ccc12 (stereo not drawn) [AVI-5158] | – | 32% | – | – | – | – | RS,RR | Average % competition [1]: 32%
CC1(C)CCN(c2ncnc3[nH]ccc23)C(CO)C1 (stereo not drawn) [AVI-5994] | – | – | – | 4.20 | 0.31 | 4.17 | S,S | –
O[C@H]1CC[C@H]2CCN(c3ncnc4[nH]ccc34)[C@H]21 [AVI-5997] | – | – | – | 4.47 | 0.34 | 4.43 | SSR | –
